From US9783573B2, “IAP antagonists” (BRISTOL-MYERS SQUIBB COMPANY, priority 2012, dated 2017) come the findings set out here.

The target of the first test is N-His-Tb-BIR3 (241-356, XIAP) (Homo sapiens (Human), UniProt P98170). The experiment in a line: biochemical. Conditions: fluoresceinated modified SMAC peptide, fluorescence polarization; read-out: XIAP BIR3 FPA IC50. It counts as binding. On the technique in general: In fluorescence polarisation assays a small probe gives low polarisation when free and higher when bound to something large.
With `CN[C@@H](C)C(=O)N[C@H](C(=O)N1Cc2cc(NC(=O)c3ccc(C(=O)Nc4ccc5c(c4)CN(C(=O)[C@@H](NC(=O)[C@H](C)NC)C(C)(C)C)[C@H](C(=O)N[C@@H](COC)c4ccccc4)C5)cc3)ccc2C[C@H]1C(=O)N[C@@H](COC)c1ccccc1)C(C)(C)C` [Example 14, N^1,N^4-bis((S)-2-((S)-3,3-Dimethyl-2-((S)-2-(methylamino)propanamido)butanoyl)-3-(((R)-2-methoxy-1-phenylethyl)carbamoyl)-1,2,3,4-tetrahydroisoquinolin-7-yl)terephthalamide], the IC50 – broadly, the midpoint of a concentration-inhibition curve – was found to be 130 nM.
The same measure, in the same setting: as for `CN[C@@H](C)C(=O)N[C@H](C(=O)N1Cc2cc(N(C(=O)C3(C(N)=O)CCC3)[C@H]3C[C@@H](C(=O)N[C@@H]4CCCc5ccccc54)N(C(=O)[C@@H](NC(=O)[C@H](C)NC)C(C)(C)C)C3)ccc2C[C@H]1C(=O)N[C@@H]1CCCc2ccccc21)C(C)(C)C` [Example 5, N-((S)-2-((S)-3,3-Dimethyl-2-((S)-2-(methylamino)propanamido)butanoyl)-3-(((R)-1,2,3,4-tetrahydronaphthalen-1-yl)carbamoyl)-1,2,3,4-tetrahydroisoquinolin-7-yl)-N-((3S,5S)-1-((S)-3,3-dimethyl-2-((S)-2-(methylamino)propanamido)butanoyl)-5-(((R)-1,2,3,4-tetrahydronaphthalen-1-yl)carbamoyl)pyrrolidin-3-yl)cyclobutane-1,1-dicarboxamide], the figure is 69 nM; as for `CN[C@@H](C)C(=O)N[C@H](C(=O)N1Cc2ccc(OCc3ccc(C(=O)N[C@H]4C[C@@H](C(=O)NC5CCCc6ccccc65)N(C(=O)[C@@H](NC(=O)[C@H](C)NC)C(C)(C)C)C4)cc3)cc2C[C@@H]1C(=O)NC1CCCc2ccccc21)C(C)(C)C` (stereo partly drawn) [Example 42, (R)-2-((S)-3,3-Dimethyl-2-((S)-2-(methylamino)propanamido)butanoyl)-6-((4-(((3S,5S)-1-((S)-3,3-dimethyl-2-((5)-2-(methylamino)propanamido)butanoyl)-5-(((R)-1,2,3,4-tetrahydronaphthalen-1-yl)carbamoyl)pyrrolidin-3-yl)carbamoyl)benzyl)oxy)-N-((R)-1,2,3,4-tetrahydronaphthalen-1-yl)-1,2,3,4-tetrahydroisoquinoline-3-carboxamide], 240 nM.
`CN[C@@H](C)C(=O)N[C@H](C(=O)N1Cc2cc(NC(=O)c3ccc(CCC(=O)N[C@H]4C[C@@H](C(=O)N[C@@H]5CCCc6ccccc65)N(C(=O)[C@@H](NC(=O)[C@H](C)NC)C(C)(C)C)C4)cc3)ccc2C[C@H]1C(=O)N[C@@H]1CCCc2ccccc21)C(C)(C)C` [Example 9, (S)-2-((S)-3,3-Dimethyl-2-((S)-2-(methylamino)propanamido)butanoyl)-7-(4-(3-(((3S,5S)-1-((S)-3,3-dimethyl-2-((S)-2-(methylamino)propanamido)butanoyl)-5-(((R)-1,2,3,4-tetrahydronaphthalen-1-yl)carbamoyl)pyrrolidin-3-yl)amino)-3-oxopropyl)benzamido)-N-((R)-1,2,3,4-tetrahydronaphthalen-1-yl)-1,2,3,4-tetrahydroisoquinoline-3-carboxamide]: the IC50 was determined as 65 nM.
Same read-out and setting: as for `CN[C@@H](C)C(=O)N[C@H](C(=O)N1Cc2cc(NC(=O)c3ccc(C(=O)Nc4ccc5c(c4)CN(C(=O)[C@@H](NC(=O)[C@H](C)NC)C(C)(C)C)[C@H](C(=O)N[C@H](C)c4ccccc4F)C5)cc3)ccc2C[C@H]1C(=O)N[C@H](C)c1ccccc1F)C(C)(C)C` [Example 12, N^1,N^4-bis((S)-2-((S)-3,3-Dimethyl-2-((S)-2-(methylamino)propanamido)butanoyl)-3-(((R)-1-(2-fluorophenyl)ethyl)carbamoyl)-1,2,3,4-tetrahydroisoquinolin-7-yl)terephthalamide], the figure is 130 nM; as for `CN[C@@H](C)C(=O)N[C@H](C(=O)N1C[C@@H](NC(=O)c2ccc(C(=O)Nc3ccc4c(c3)CN(C(=O)[C@@H](NC(=O)[C@@H](NC)C(C)C)C(C)(C)C)[C@H](C(=O)N[C@@H]3CCCc5ccccc53)C4)cc2)C[C@H]1C(=O)N[C@@H]1CCCc2ccccc21)C(C)(C)C` [Example 35], 200 nM.
For `CCN[C@@H](C)C(=O)N[C@H](C(=O)N[C@H](C(=O)N1Cc2cc(OCc3ccc(C(=O)N[C@H]4C[C@@H](C(=O)N[C@@H]5CCCc6ccccc65)N(C(=O)[C@@H](NC(=O)[C@H](C)NC)C(C)(C)C)C4)cc3)ccc2C[C@H]1C(=O)N[C@@H]1CCCc2ccccc21)C(C)(C)C)C(C)(C)C` [Example 40, (S)-7-((4-(((3S,5S)-1-((S)-3,3-Dimethyl-2-((S)-2-(methylamino)propanamido)butanoyl)-5-(((R)-1,2,3,4-tetrahydronaphthalen-1-yl)carbamoyl)pyrrolidin-3-yl)carbamoyl)benzyl)oxy)-2-((S)-2-((S)-2-((S)-2-(ethylamino)propanamido)-3,3-dimethylbutanamido)-3,3-dimethylbutanoyl)-N-((R)-1,2,3,4-tetrahydronaphthalen-1-yl)-1,2,3,4-tetrahydroisoquinoline-3-carboxamide], the IC50 amounted to 660 nM.
Same read-out and setting: as for `CN[C@@H](C)C(=O)N[C@H](C(=O)N1Cc2cc(NC(=O)CCC(=O)N[C@H]3C[C@@H](C(=O)N[C@@H]4CCCc5ccccc54)N(C(=O)[C@@H](NC(=O)[C@H](C)NC)C(C)(C)C)C3)ccc2C[C@H]1C(=O)N[C@@H]1CCCc2ccccc21)C(C)(C)C` [Example 1, N^1—((S)-2-((S)-3,3-Dimethyl-2-((S)-2-(methylamino)propanamido)butanoyl)-3-(((R)-1,2,3,4-tetrahydronaphthalen-1-yl)carbamoyl)-1,2,3,4-tetrahydroisoquinolin-7-yl)-N^4-((3S,5S)-1-((S)-3,3-dimethyl-2-((S)-2-(methylamino)propanamido)butanoyl)-5-(((R)-1,2,3,4-tetrahydronaphthalen-1-yl)carbamoyl)pyrrolidin-3-yl)succinamide], the figure is 61 nM; as for `CN[C@@H](C)C(=O)N[C@H](C(=O)N1Cc2cc(C(=O)NC3(C(=O)N[C@H]4C[C@@H](C(=O)N[C@@H]5CCCc6ccccc65)N(C(=O)[C@@H](NC(=O)[C@H](C)NC)C(C)(C)C)C4)CC3)ccc2C[C@H]1C(=O)N[C@@H]1CCCc2ccccc21)C(C)(C)C` [Example 28, (S)-2-((S)-3,3-Dimethyl-2-((S)-2-(methylamino)propanamido)butanoyl)-N7-(1-(((3S,5S)-1-((S)-3,3-dimethyl-2-((S)-2-(methylamino)propanamido)butanoyl)-5-(((R)-1,2,3,4-tetrahydronaphthalen-1-yl)carbamoyl)pyrrolidin-3-yl)carbamoyl)cyclopropyl)-N3((R)-1,2,3,4-tetrahydronaphthalen-1-yl)-1,2,3,4-tetrahydroisoquinoline-3,7-dicarboxamide], 98 nM.
Take `CN[C@@H](C)C(=O)N[C@H](C(=O)N1Cc2cc(NC(=O)C3CC4(C3)CC(C(=O)N[C@H]3C[C@@H](C(=O)N[C@@H]5CCCc6ccccc65)N(C(=O)[C@@H](NC(=O)[C@H](C)NC)C(C)(C)C)C3)C4)ccc2C[C@H]1C(=O)N[C@@H]1CCCc2ccccc21)C(C)(C)C` (stereo partly drawn) [Example 7, N^2-((S)-2-((S)-3,3-Dimethyl-2-((S)-2-(methylamino)propanamido)butanoyl)-3-(((R)-1,2,3,4-tetrahydronaphthalen-1-yl)carbamoyl)-1,2,3,4-tetrahydroisoquinolin-7-yl)-N^6-((3S,5S)-1-((S)-3,3-dimethyl-2-((S)-2-(methylamino)propanamido)butanoyl)-5-(((R)-1,2,3,4-tetrahydronaphthalen-1-yl)carbamoyl)pyrrolidin-3-yl)spiro[3.3]heptane-2,6-dicarboxamide]: the IC50 amounted to 83 nM.
On the same count and under the same terms, as for `CN[C@@H](C)C(=O)N[C@H](C(=O)N1Cc2cc(NCc3ccc(C(=O)N[C@H]4C[C@@H](C(=O)N[C@@H]5CCCc6ccccc65)N(C(=O)[C@@H](NC(=O)[C@H](C)NC)C(C)(C)C)C4)cc3Cl)ccc2C[C@H]1C(=O)N[C@@H]1CCCc2ccccc21)C(C)(C)C` [Example 33, (S)-7-((2-Chloro-4-(((3S,5S)-1-((S)-3,3-dimethyl-2-((S)-2-(methylamino)propanamido)butanoyl)-5-(((R)-1,2,3,4-tetrahydronaphthalen-1-yl)carbamoyl)pyrrolidin-3-yl)carbamoyl)benzyl)amino)-2-((S)-3,3-dimethyl-2-((S)-2-(methylamino)propanamido)butanoyl)-N—((R)-1,2,3,4-tetrahydronaphthalen-1-yl)-1,2,3,4-tetrahydroisoquinoline-3-carboxamide], the figure is 66 nM; as for `CN[C@@H](C)C(=O)N[C@H](C(=O)N1Cc2cc(OC(=O)c3ccc(CO[C@H]4C[C@@H](C(=O)N[C@@H]5CCCc6ccccc65)N(C(=O)[C@@H](NC(=O)[C@H](C)NC)C(C)(C)C)C4)cc3)ccc2C[C@H]1C(=O)N[C@@H]1CCCc2ccccc21)C(C)(C)C` [Example 48, (S)-2-((S)-3,3-Dimethyl-2-((S)-2-(methylamino)propanamido)butanoyl)-3-(((R)-1,2,3,4-tetrahydronaphthalen-1-yl)carbamoyl)-1,2,3,4-tetrahydroisoquinolin-7-yl 4-((((3S,5S)-1-((S)-3,3-dimethyl-2-((S)-2-(methylamino)propanamido)butanoyl)-5-(((R)-1,2,3,4-tetrahydronaphthalen-1-yl)carbamoyl)pyrrolidin-3-yl)oxy)methyl)benzoate], 92 nM.

The same test, now with this note: read-out: XIAP BIR3 FPA IC50.
As for `CN[C@@H](C)C(=O)N[C@H](C(=O)N1Cc2cc(NC(=O)C(F)(F)C(F)(F)C(=O)N[C@H]3C[C@@H](C(=O)N[C@@H]4CCCc5ccccc54)N(C(=O)[C@@H](NC(=O)[C@H](C)NC)C(C)(C)C)C3)ccc2C[C@H]1C(=O)N[C@@H]1CCCc2ccccc21)C(C)(C)C` [Example 17, N^1—((S)-2-((S)-3,3-Dimethyl-2-((S)-2-(methylamino)propanamido)butanoyl)-3-(((R)-1,2,3,4-tetrahydronaphthalen-1-yl)carbamoyl)-1,2,3,4-tetrahydroisoquinolin-7-yl)-N^4-((3S,5S)-1-((S)-3,3-dimethyl-2-((S)-2-(methylamino)propanamido)butanoyl)-5-(((R)-1,2,3,4-tetrahydronaphthalen-1-yl)carbamoyl)pyrrolidin-3-yl)-2,2,3,3-tetrafluorosuccinamide], the IC50 turned out to be 56 nM.
